Columns and labels:
[1] = system: MB cells; assay: 53BP1 nuclear foci immunofluorescence (DNA strand breaks); assay type: cell-based; conditions: vs scrambled-transfected MB cells
Experimental: FIG. 13C-D show representative immunofluorescence images showing 53BP1 foci in D556Med cells transfected with miR-NC or miR-584-5p mimic (C) or scramble-siRNA or eIF4E3/HDAC1-siRNAs (D) and treated with or without 10 Gy of IR.
Bar graphs next to images show average number of 53BP1 foci/cell. The p-values were determined by two-way ANOVA followed by Sidak's multiple-comparisons test. Error bars represent mean±SEM. Because miR-584-5p induces apoptosis, it was reasoned that DNA strand breaks induced by miR-584-5p and eIF4E3/HDAC1 silencing may not be properly repaired. To confirm those findings, a functional assay was performed to monitor homologous recombination (HR) because HR-dependent events repair IR-induced double-strand breaks in G2 phase. The ISceI-based DR-GFP reporter assay, which measures the frequency of double-strand break repair by HR (Gunn, A., Bennardo, N., Cheng, A. & Stark, J. M. Journal of Biological Chemistry 286, 42470-42482, (2011); Pierce, A. J., Johnson, R. D., Thompson, L. H. & Jasin, M. Genes & Development 13, 2633-2638, (1999); and Stark, J. M., Pierce, A. J., Oh, J., Pastink, A. & Jasin, M. Molecular and Cellular Biology 24, 9305-9316, (2004)), was used. […] The p-values were calculated using either Student t-tests (mimic) or one-way ANOVA followed by Dunnett's multiple-comparisons test (siRNAs). […]

[2] = system: c-Myc; assay: qPCR and Western blot of c-Myc; assay type: cell-based; conditions: c-Myc-amplified MB cells
Experimental: Immunofluorescence and Western blot analysis Immunofluorescence analyses was carried out on cells fixed in 4% paraformaldehyde (Imam, J. S. et al. PLoS One 7, e52397, (2012)). […]
Because c-Myc supports cancer stem cell growth, promotes radioresistance (Gravina, G. L. et al. Radiat Res 185, 411-422, (2016)), and has elevated levels in VCR-resistant cancer cells (He, Y., Zhang, J., Zhang, J. & Yuan, Y. Chin Med J (Engl) 113, 848-851 (2000)), it was tested whether miR-584-5p and its target genes may regulate c-Myc-amplified MB growth and therapy sensitization by targeting c-Myc levels/functions. […] In FIG. 14D, the p-values were calculated using standard Student t-tests. […] To test that possibility, it was assessed whether miR-584-5p target genes may regulate c-Myc levels in MB. […] Cell viability was assessed using alamarBlue. The p-value was calculated using one-way ANOVA followed by Sidak's multiple-comparisons test. […]

## miR-584-5p: microRNA mimic; nucleotide sequence UUAUGGUUUGCCUGGGACUGAG (SEQ ID NO: 1); purchased from Thermofisher (chemistry not given here)
[1]
  53BP1 foci: significantly more 53BP1 foci
[2]
  c-Myc levels: significantly reduced expression of c-Myc

Source: US20210071180A1, “MICRORNA 584-5P COMPOSITIONS AND METHODS FOR TREATING CANCER” (BOARD OF REGENTS, THE UNIVERSY OF TEXAS SYSTEM, priority 2018, published 2021)
